Assay results reported in US20260248882A1, “USE OF ANNEXIN A5 IN HAIR GROWTH, HAIR NURTURING, HAIR CARE, HAIR LOSS PREVENTION, AND HAIR LOSS TREATMENT, AND RELATED PRODUCTS AND PHARMACEUTICAL COMPOSITIONS” (SHANGHAI CELLEAF BIOTECHNOLOGY CO., LTD, priority 2023, published 2026).

How the values were obtained:
androgen receptor (AR) = assay: Western Blot of androgen receptor expression in isolated dermal papillae; assay type: in vivo, mouse; details: DHT model mice, A5-Low/A5 High groups, FIG. 4
Procedure: (§1) Experimental animals: C57BL/6 male mice, 5-7 weeks old, weighing around 20 g were housed in a 12 hour light/12 hour dark environment, with free access to food and water. The experiment set up control group (CTRL); model group (DHT); A5-Low group (treated with Annexin A5, injected once every three days); and A5-High group (treated with Annexin A5, injected once a day). Each group consists of 6 mice.
(§2) Modeling and administration: Dihydrotestosterone (DHT) was used to induce the formation of the mouse androgenetic hair loss model. In addition to the control group, the other three groups of mice received subcutaneous injection of DHT solution (5 mg/mL) at the neck, 0.01 mL for each, for a total of 2 weeks. The control group was injected with an equal volume of physiological saline. After 2 weeks, all mice were shaved and their back hair was removed using a shaving knife. […] The status of hair growth on the back of mice was observed every day and recorded by taking photos. […]
(§3) Sample Treatment: After euthanizing the mice, 1 cm^2 skin tissue was collected, and the hair on the skin surface was removed with a scissors as much as possible. […] The supernatant was collected by high-speed centrifugation, the protein concentration was determined using BCA method, and protein samples were prepared according to Western Blot requirements. […]

[1] = test system: Ki67 (cell proliferation marker); assay: Ki67 immunohistochemical staining of paraffin skin sections; assay type: in vivo, mouse; details: DHT model mice after Annexin A5 treatment; FIG. 3
Procedure: as §1
as §2, with “knife. Then hair removal cream was used to further remove residual hair from the shaved area of the mice. After hair removal, both the control group and the model group were injected daily with […] of PBS in the hair removal area, divided into 10 injection points, with 20 μL per point. The A5-Low group received Annexin A5 treatment once every three days, while the A5-High group received Annexin A5 treatment once a day.” for “knife.”

[2] = test system: mouse androgenetic hair loss model; assay: Histological HE staining analysis of skin sections; assay type: in vivo; details: DHT model mice treated with Annexin A5 for 2 weeks, FIG. 2
Procedure: as §1
(§4) Modeling and administration: Dihydrotestosterone (DHT) was used to induce the formation of the mouse androgenetic hair loss model. In addition to the control group, the other three groups of mice received subcutaneous injection of DHT solution (5 mg/mL) at the neck, 0.01 mL for each, for a total of 2 weeks. The control group was injected with an equal volume of physiological saline. After 2 weeks, all mice were shaved and their back hair was removed using a shaving knife. Then hair removal cream was used to further remove residual hair from the shaved area of the mice. After hair removal, both the control group and the model group were injected daily with […] of PBS in the hair removal area, divided into 10 injection points, with 20 μL per point. The A5-Low group received Annexin A5 treatment once every three days, while the A5-High group received Annexin A5 treatment once a day. The injection method was subcutaneous injection at 10 points in the hair removal area, with 20 μL of Annexin A5 at a concentration of 50 μg/mL injected at each point. The status of hair growth on the back of mice was observed every day and recorded by taking photos. Samples were collected after 16 days.
Tissue sampling: After drug treatment, mice were euthanized by cervical dislocation. […]
Sections were taken for xylene dewaxing and gradient ethanol hydration, and then hematoxylin and eosin staining was performed. […] The next day, an optical microscope was used to observe and record, and the number of hair follicles was statistical analyzed.

[3] = test system: transforming growth factor β1 (TGF β-1); assay: Western Blot of TGF-β1 expression in isolated dermal papillae; assay type: in vivo, mouse; details: DHT model mice, A5-Low/A5 High groups, FIG. 4
Procedure: as §1, §2, §3

[4] = test system: mouse androgenetic hair loss model; assay: Hair growth observation in mouse androgenetic hair loss model (DHT-induced); assay type: in vivo; details: C57BL/6 male mice, depilated back, FIG. 1
Procedure: as §1
as §4, with “The injection method was subcutaneous injection at 10 points in the hair removal area, with 20 μL of Annexin A5 at a concentration of 50 μg/mL injected at each point.” left out, “Samples were collected after 16 days.” left out

[5] = test system: CD31 (vascular angiogenesis marker); assay: CD31 immunohistochemical staining of paraffin skin sections; assay type: in vivo, mouse; details: DHT model mice after Annexin A5 treatment; FIG. 3
Procedure: as §1
as §4, with “The injection method was subcutaneous injection at 10 points in the hair removal area, with 20 μL of Annexin A5 at a concentration of 50 μg/mL injected at each point.” left out, “Samples were collected after 16 days.” left out

**Q.** With “Annexin A5: calcium phospholipid binding protein composed of a single polypeptide chain of 319 amino acids” as the substance, how does the “AR expression in dermal papillae” value (androgen receptor (AR)) read?
**A.** significant inhibition

**Q.** What about the “proliferation and survival ability of cells in the hair follicles (Ki67)” value [1] of the same substance?
**A.** improved

**Q.** And the dermal thickness [2]?
**A.** did not affect

**Q.** And the follicle size [2]?
**A.** did not affect

**Q.** And the “number of hair follicle dermal papillae” value [2]?
**A.** did not affect

**Q.** And the “TGF-β1 expression in dermal papillae” value [3]?
**A.** significant inhibition

**Q.** What about the “entry into anagen phase (skin turning black)” value ([4]; A5-Low and A5-High groups) of the same substance?
**A.** entered the anagen phase earlier

**Q.** And the hair growth ability ([4]; subcutaneous Annexin A5 50 μg/mL, 10 points x 20 μL, once every three days or once a day, observed 16 days)?
**A.** significantly enhanced hair growth ability

**Q.** What about the “number of capillaries around the dermal papillae (CD31)” value [5] of the same substance?
**A.** increased
